Like-named read-outs stand apart in the source and are kept apart here.
How the values were obtained:
Mcl-1 = Mcl-1 (Homo sapiens (Human), UniProt Q07820); test: Fluorescence polarization anisotropy (FPA) competition assay, FITC-Bak or FITC-Bim BH3 peptide; assay type: binding; conditions: read-out: Ki for Inhibition of Mcl-1 by FPA assay
[1] = system: H929 human cancer cell lines; test: Cellular viability / proliferation (Cell TiterGlo, 72 h); assay type: cell-based
Method in brief: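 Cells were seeded at 1,000 cells/well in medium with 10% FBS and dosed 24 h later with a 2-fold serial dilution of compound (top concentration 50 μM, final DMSO <1%).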

[2] = Homo sapiens, NCI-H929, 72 h, read-out: GI50 on cellular proliferation of H929 human cancer cell lines, H929 cells, 72 h, Cell TiterGlo, 10% FBS
[3] = H929 cells, 72 h, Cell TiterGlo, 10% FBS, read-out: GI50 on cellular proliferation of H929 human cancer cell lines

Chain of Mcl-1 (Q07820 172-327): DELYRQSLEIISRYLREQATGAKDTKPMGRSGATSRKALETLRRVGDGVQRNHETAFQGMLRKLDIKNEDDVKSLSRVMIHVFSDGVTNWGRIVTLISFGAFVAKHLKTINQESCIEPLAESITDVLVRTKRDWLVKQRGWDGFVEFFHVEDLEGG

Row | SMILES | Ki (Mcl-1) [nM] | GI50 [1, 2] [nM] | GI50 [1, 3] [nM]
1 | CC(=O)c1ccc2c(c1)c(N1C[C@@H](C)n3c(c(CCCOc4cc(C)c(Cl)c(C)c4)c4ccc(Cl)c(-c5c(C)nn(C)c5C)c43)C1=O)cn2C [Example 260, (R)-2-(5-Acetyl-1-methyl-1H-indol-3-yl)-7-chloro-10-(3-(4-chloro-3,5-dimethylphenoxy)propyl)-4-methyl-6-(1,3,5-trimethyl-1H-pyrazol-4-yl)-3,4-dihydropyrazino[1,2-a]indol-1(2H)-one] | < 1 | 550 | –
2 | Cc1cccc(OCCCc2c3n(c4c(-c5c(C)nn(C)c5C)c(Cl)ccc24)[C@H](C)CN(c2cn(C)c4ccc(C(=O)O)cc24)C3=O)c1 [Example 405, (R)-3-(7-Chloro-4-methyl-1-oxo-10-(3-(m-tolyloxy)propyl)-6-(1,3,5-trimethyl-1H-pyrazol-4-yl)-3,4-dihydropyrazino[1,2-a]indol-2(1H)-yl)-1-methyl-1H-indole-5-carboxylic acid] | < 1 | 460 | –
3 | Cc1cc(OCCCc2c3n(c4c(-c5c(C)nn(C)c5C)c(Cl)ccc24)[C@H](C)CN(c2cccc4cc5n(c24)CCNC5=O)C3=O)cc(C)c1Cl [Example 434, (R)-7-Chloro-10-(3-(4-chloro-3,5-dimethylphenoxy)propyl)-4-methyl-6-(1,3,5-trimethyl-1H-pyrazol-4-yl)-3,3′,4,4′-tetrahydro-1H-[2,6′-bipyrazino[1,2-a]indole]-1,1′(2′H)-dione] | 5.5 | 890 | –
4 | COc1ccc(N2C[C@@H](C)n3c(c(CCCOc4cc(C)c(Cl)c(C)c4)c4ccc(Cl)c(-c5c(C)nn(C)c5C)c43)C2=O)c2c1cc(C(N)=O)n2C [Example 412, (R)-7-(7-Chloro-10-(3-(4-chloro-3,5-dimethylphenoxy)propyl)-4-methyl-1-oxo-6-(1,3,5-trimethyl-1H-pyrazol-4-yl)-3,4-dihydropyrazino[1,2-a]indol-2(1H)-yl)-4-methoxy-1-methyl-1H-indole-2-carboxamide] | 1.3 | 450 | –
5 | Cc1cc(OCCCc2c3n(c4c(-c5c(C)nn(C)c5C)c(Cl)ccc24)[C@H](C)CN(c2cn(C)c4ccc(-c5nnn(C)n5)cc24)C3=O)cc(C)c1Cl [Example 350, (R)-7-Chloro-10-(3-(4-chloro-3,5-dimethylphenoxy)propyl)-4-methyl-2-(1-methyl-5-(2-methyl-2H-tetrazol-5-yl)-1H-indol-3-yl)-6-(1,3,5-trimethyl-1H-pyrazol-4-yl)-3,4-dihydropyrazino[1,2-a]indol-1(2H)-one] | < 1 | 300 | –
6 | COc1ccc(Cn2c(C(=O)O)cc3cccc(N4C[C@@H](C)n5c(c(CCCOc6cc(C)c(Cl)c(C)c6)c6ccc(Cl)c(-c7c(C)nn(C)c7C)c65)C4=O)c32)nc1 [Example 382, (R)-7-(7-Chloro-10-(3-(4-chloro-3,5-dimethylphenoxy)propyl)-4-methyl-1-oxo-6-(1,3,5-trimethyl-1H-pyrazol-4-yl)-3,4-dihydropyrazino[1,2-a]indol-2(1H)-yl)-1-((5-methoxypyridin-2-yl)methyl)-1H-indole-2-carboxylic acid] | 1.2 | 750 | –
7 | Cc1cc(OCCCc2c3n(c4c(-c5c(C)nn(C)c5C)c(Cl)ccc24)[C@H](C)CN(c2cn(C)c4ccc(C(=O)NN)cc24)C3=O)cc(C)c1Cl [Example 366, (R)-3-(7-Chloro-10-(3-(4-chloro-3,5-dimethylphenoxy)propyl)-4-methyl-1-oxo-6-(1,3,5-trimethyl-1H-pyrazol-4-yl)-3,4-dihydropyrazino[1,2-a]indol-2(1H)-yl)-1-methyl-1H-indole-5-carbohydrazide] | 2.9 | 440 | –
8 | Cc1cc(OCCCc2c3n(c4c(-c5c(C)nn(C)c5C)c(Cl)ccc24)[C@H](C)CN(c2cc(OCc4ccccc4)cc4cc(C(=O)O)n(C)c24)C3=O)cc(C)c1Cl [Example 345, (P, R)-5-(Benzyloxy)-7-(7-chloro-10-(3-(4-chloro-3,5-dimethylphenoxy)propyl)-4-methyl-1-oxo-6-(1,3,5-trimethyl-1H-pyrazol-4-yl)-3,4-dihydropyrazino[1,2-a]indol-2(1H)-yl)-1-methyl-1H-indole-2-carboxylic acid] | 3.5 | – | 1800
9 | Cc1cc(OCCCc2c3n(c4c(-c5c(C)nn(C)c5C)c(Cl)ccc24)[C@H](C)CN(c2cn(C)c4cc(F)c(C(=O)O)cc24)C3=O)cc(C)c1Cl [Example 348, (P, R)-3-(7-Chloro-10-(3-(4-chloro-3,5-dimethylphenoxy)propyl)-4-methyl-1-oxo-6-(1,3,5-trimethyl-1H-pyrazol-4-yl)-3,4-dihydropyrazino[1,2-a]indol-2(1H)-yl)-6-fluoro-1-methyl-1H-indole-5-carboxylic acid] | 1.8 | – | 1300
10 | Cc1nn(C)c(C)c1-c1c(Cl)ccc2c(CCCOc3ccccc3)c3n(c12)[C@H](C)CN(c1cn(C)c2ccc(C(=O)O)cc12)C3=O [Example 408, (R)-3-(7-Chloro-4-methyl-1-oxo-10-(3-phenoxypropyl)-6-(1,3,5-trimethyl-1H-pyrazol-4-yl)-3,4-dihydropyrazino[1,2-a]indol-2(1H)-yl)-1-methyl-1H-indole-5-carboxylic acid] | 2.2 | 3200 | –
11 | Cc1cc(OCCCc2c3n(c4c(-c5c(C)nn(C)c5C)c(Cl)ccc24)[C@H](C)CN(c2ccc4c(c2)c(C(=O)O)cn4C)C3=O)cc(C)c1Cl [Example 171, (R)-5-(7-Chloro-10-(3-(4-chloro-3,5-dimethylphenoxy)propyl)-4-methyl-1-oxo-6-(1,3,5-trimethyl-1H-pyrazol-4-yl)-3,4-dihydropyrazino[1,2-a]indol-2(1H)-yl)-1-methyl-1H-indole-3-carboxylic acid] | < 1 | 1500 | –
12 | CC[C@@H]1Cn2c(c(CCCOc3cc(C)c(Cl)c(C)c3)c3ccc(Cl)c(-c4c(C)nn(C)c4C)c32)C(=O)N1c1cc(C(=O)O)c2c(ccn2C)c1 [Example 41, (R)-5-(7-chloro-10-(3-(4-chloro-3,5-dimethylphenoxy)propyl)-3-ethyl-1-oxo-6-(1,3,5-trimethyl-1H-pyrazol-4-yl)-3,4-dihydropyrazino[1,2-a]indol-2(1H)-yl)-1-methyl-1H-indole-7-carboxylic acid] | 1.8 | 1200 | –
13 | Cc1cc(OCCCc2c3n(c4c(-c5c(C)nn(C)c5C)c(Cl)ccc24)[C@H](C)CN(c2cc(C(=O)O)c4cn(CCN5CCOCC5)nc4c2)C3=O)cc(C)c1Cl [Example 57, (R)-6-(7-chloro-10-(3-(4-chloro-3,5-dimethylphenoxy)propyl)-4-methyl-1-oxo-6-(1,3,5-trimethyl-1H-pyrazol-4-yl)-3,4-dihydropyrazino[1,2-a]indol-2(1H)-yl)-2-(2-morpholinoethyl)-2H-indazole-4-carboxylic acid] | < 1 | 1700 | –
14 | Cc1cc(OCCCc2c3n(c4c(-c5c(C)nn(C)c5C)c(Cl)ccc24)[C@H](C)CN(c2cccc4nc(C(=O)O)ccc24)C3=O)cc(C)c1Cl [Example 184, (R)-5-(7-chloro-10-(3-(4-chloro-3,5-dimethylphenoxy)propyl)-4-methyl-1-oxo-6-(1,3,5-trimethyl-1H-pyrazol-4-yl)-3,4-dihydropyrazino[1,2-a]indol-2(1H)-yl)quinoline-2-carboxylic acid] | < 1 | 770 | –
15 | Cc1cc(OCCCc2c3n(c4c(-c5c(C)n[nH]c5C)c(Cl)ccc24)[C@H](C)CN(c2cn(C)c4cc(C(=O)O)ccc24)C3=O)cc(C)c1Cl [Example 109, (R)-3-(7-chloro-10-(3-(4-chloro-3,5-dimethylphenoxy)propyl)-6-(3,5-dimethyl-1H-pyrazol-4-yl)-4-methyl-1-oxo-3,4-dihydropyrazino[1,2-a]indol-2(1H)-yl)-1-methyl-1H-indole-6-carboxylic acid] | < 1 | 710 | –
16 | Cc1cc(OCCCc2c3n(c4c(-c5c(C)nn(C)c5C)c(Cl)ccc24)[C@H](C)CN(c2cc(C(=O)O)cc4c2OCO4)C3=O)cc(C)c1Cl [Example 33, (R)-7-(7-chloro-10-(3-(4-chloro-3,5-dimethylphenoxy)propyl)-4-methyl-1-oxo-6-(1,3,5-trimethyl-1H-pyrazol-4-yl)-3,4-dihydropyrazino[1,2-a]indol-2(1H)-yl)benzo[d][1,3]dioxole-5-carboxylic acid] | < 1 | 650 | –
17 | Cc1cc(OCCCc2c3n(c4c(-c5c(C)nn(C)c5C)c(Cl)ccc24)[C@H](C)CN(c2ccc4cc(C(=O)O)ccc4c2)C3=O)cc(C)c1Cl [Example 185, (R)-6-(7-Chloro-10-(3-(4-chloro-3,5-dimethylphenoxy)propyl)-4-methyl-1-oxo-6-(1,3,5-trimethyl-1H-pyrazol-4-yl)-3,4-dihydropyrazino[1,2-a]indol-2(1H)-yl)-2-naphthoic acid] | 4.6 | 2900 | –
18 | Cc1cc(OCCCc2c3n(c4c(-c5c(C)nn(C)c5C)c(Cl)ccc24)[C@H](C)CN(c2cn(C)c4ccc(-c5ncn(CC6CC6)n5)cc24)C3=O)cc(C)c1Cl [Example 462, (R)-7-Chloro-10-(3-(4-chloro-3,5-dimethylphenoxy)propyl)-2-(5-(1-(cyclopropylmethyl)-1H-1,2,4-triazol-3-yl)-1-methyl-1H-indol-3-yl)-4-methyl-6-(1,3,5-trimethyl-1H-pyrazol-4-yl)-3,4-dihydropyrazino[1,2-a]indol-1(2H)-one] | 2 | 990 | –
19 | COCCOc1ccc(N2C[C@@H](C)n3c(c(CCCOc4cc(C)c(Cl)c(C)c4)c4ccc(Cl)c(-c5c(C)nn(C)c5C)c43)C2=O)c2c1cc(C(=O)O)n2C [Example 325, (M, R)-7-(7-Chloro-10-(3-(4-chloro-3,5-dimethylphenoxy)propyl)-4-methyl-1-oxo-6-(1,3,5-trimethyl-1H-pyrazol-4-yl)-3,4-dihydropyrazino[1,2-a]indol-2(1H)-yl)-4-(2-methoxyethoxy)-1-methyl-1H-indole-2-carboxylic acid] | < 1 | – | 290
